Laboratory results from PMC7476565 (Antiviral Research, 2020).

Key:
[1] = test system: CRFK cells; assay: In vitro cytotoxicity MTS assay on CRFK cells; type: cell-based, feline; details: read-out: 50% cytotoxic concentration CC50, MTS assay
[2] = In vitro cytotoxicity MTS assay on CRFK cells; type: cell-based, feline; details: cat, 50% cytotoxic concentration CC50, MTS assay
[3] = test system: FIPV; assay: microbe, parasite or virus in culture; type: cell-based, feline infectious peritonitis virus (FIPV) strain 79-1146; details: for EC50: Alphacoronavirus 1, CRFK, 2 h, read-out: Prophylaxis treatment EC50, IPMA; for inhibition of the cytopathic effect (in words): FIPV in CRFK cells, all examined conditions
[4] = target: FIPV 3CL^pro (Feline coronavirus, UniProt Q98VG9); assay: FRET protease inhibition assay, FIPV 3CLpro; type: biochemical, feline infectious peritonitis virus (FIPV) strain 79-1146
[5] = test system: FIPV; assay: FIPV RNA quantification by RT-qPCR in CRFK cells; type: cell-based, feline infectious peritonitis virus (FIPV) strain 79-1146; details: with higher concentration
[6] = test system: TGEV; assay: Antiviral activity against TGEV replication in SK6 cells
[7] = test system: FIPV; details: CRFK cells; CPE still observed; ref Weiss and Oostrom-Ram, 1989; cited from earlier work

Chain of FIPV 3CL^pro (Q98VG9 2904-3205 limits assumed): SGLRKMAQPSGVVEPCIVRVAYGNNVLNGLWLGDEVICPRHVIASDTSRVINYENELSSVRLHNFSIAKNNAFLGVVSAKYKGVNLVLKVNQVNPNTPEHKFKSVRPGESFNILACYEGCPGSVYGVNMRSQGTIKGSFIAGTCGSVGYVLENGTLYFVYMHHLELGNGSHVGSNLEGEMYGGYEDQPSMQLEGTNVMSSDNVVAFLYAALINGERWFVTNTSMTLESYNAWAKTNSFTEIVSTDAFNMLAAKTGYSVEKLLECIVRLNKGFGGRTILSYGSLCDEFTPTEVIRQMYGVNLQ

SMILES	CC50 [1] [µM]	CC50 [2] [µM]	EC50 [3] [µM]	Ki [4] [µM]	copy numbers of FIPV RNAs / FIPV replication (RT-qPCR) [5]	inhibition of the cytopathic effect (in words) [3]	antiviral effect in TGEV cell-based assay (in words) [6]	Inhibitory dose for FIPV [7] [µg/mL]
CC(C)C[C@H](NC(=O)OCc1ccccc1)C(=O)N[C@@H](CC1CCNC1=O)C(O)S(=O)(=O)O (stereo partly drawn) [GC376, reference compound]	> 200	–	–	–	–	–	–	–
Cc1cccc(C)c1OCC(=O)N[C@@H](Cc1ccccc1)[C@@H](O)C[C@H](Cc1ccccc1)NC(=O)[C@H](C(C)C)N1CCCNC1=O [Lopinavir, reference compound]	–	> 100	33.7 ± 1.53	–	–	–	–	–
O=C(C=Cc1ccc2ccccc2n1)c1cc(Cl)ccc1O [NSC71097, 1-(5-chloro-2-hydroxyphenyl)-3-(2-quinolinyl)-2-propen-1-one]	–	68.5 ± 4.82	1.99 ± 0.3	15.2 ± 1.76	reduced replication	strongly inhibit	–	–
O=C(Nc1ccc(F)cc1)Oc1ccc[nH]c1=O [NSC282187, Carbamic acid, (4-fluorophenyl)-, 1,2-dihydro-2-oxo-3-pyridinyl ester]	–	510.7 ± 0.13	> 200	2.04 ± 0.08	–	–	did not show an active antiviral effect	–
N#CC1(C#N)C2C=CC(c3coc4cccc2c34)C1(C#N)C#N (stereo not drawn) [NSC629301, 3,6-dihydro-3,6-ethanocyclohepta (cd) (1) benzofuran-10,10,11,11-tetracarbonitrile]	23.2 ± 5.19	28.1 ± 5.19	6.11 ± 1.9	9.39 ± 0.53	reduced replication	strongly inhibit	–	–
NC(=O)c1ncn([C@@H]2O[C@H](CO)[C@@H](O)[C@H]2O)n1 [Ribavirin, reference compound]	–	> 500	> 200	–	–	–	–	50 to 100
